Experimental data from PubChem BioAssay (NCI).
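In this assay, cells in 96-well plates receive the compound at five concentrations for 48 hours. Endpoints are linearly interpolated between the surrounding concentrations. TGI: concentration producing complete growth inhibition.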

Legend:
Experiment in all cases: DTP human tumour cell line panel, 48 h
[1] = test system: OVCAR-3 ovarian
[2] = test system: HCT-15 colon
[3] = test system: NCI/ADR-RES ovarian
[4] = test system: UACC-62 melanoma
[5] = test system: HT29 colon
[6] = test system: OVCAR-8 ovarian
[7] = test system: COLO 205 colon
[8] = test system: MDA-MB-435
[9] = test system: T-47D breast
[10] = test system: A549 NSCLC
[11] = test system: IGROV1 ovarian
[12] = test system: CAKI-1 renal
[13] = test system: SF-295 CNS
[14] = test system: MDA-MB-231 breast
[15] = test system: SK-MEL-5 melanoma
[16] = test system: HOP-62 NSCLC
[17] = test system: SR leukemia
[18] = test system: M14 melanoma
[19] = test system: MDA-N
[20] = test system: SNB-19 CNS
[21] = test system: SK-MEL-28 melanoma
[22] = test system: SNB-75 CNS
[23] = test system: UACC-257 melanoma
[24] = test system: NCI-H460 lung
[25] = test system: SN12C renal
[26] = test system: SF-539 CNS
[27] = test system: MOLT-4 leukemia
[28] = test system: HOP-92 NSCLC
[29] = test system: TK-10 renal
[30] = test system: NCI-H522 lung
[31] = test system: PC-3 prostate
[32] = test system: RXF 393 renal
[33] = test system: KM12 colon
[34] = test system: ACHN renal
[35] = test system: HCC-2998 colon
[36] = test system: SK-MEL-2 melanoma
[37] = test system: EKVX NSCLC
[38] = test system: SW-620 colon
[39] = test system: HS 578T breast
[40] = test system: DU-145 prostate
[41] = test system: RPMI-8226 leukemia
[42] = test system: NCI-H23 lung
[43] = test system: HCT-116 colon
[44] = test system: U251 CNS
[45] = test system: OVCAR-5 ovarian
[46] = test system: MALME-3M melanoma
[47] = test system: SK-OV-3 ovarian
[48] = test system: MCF7 breast
[49] = test system: OVCAR-4 ovarian
[50] = test system: UO-31 renal
[51] = test system: NCI-H226 lung
[52] = test system: BT-549 breast
[53] = test system: SF-268 CNS
[54] = test system: 786-0 renal
[55] = test system: K-562 leukemia
[56] = test system: LOX IMVI melanoma
[57] = test system: CCRF-CEM leukemia
[58] = test system: A498 renal
[59] = test system: HL-60(TB) leukemia

Measured: TGI

OC/C=C/[C@H](OCc1ccccc1)[C@H](/C=C/CO)OCc1ccccc1
94.6 µM: [53]
85.9 µM: [20]
54.7 µM: [55]
47.4 µM: [56]
69.1 µM: [44]
51.4 µM: [57]
59.9 µM: [5]
39.6 µM: [17]
95 µM: [49]
42.8 µM: [41]
88.8 µM: [9]
40 µM: [27]
not listed: [59]
> 100 µM: all other assays above

CC(C)(C)OC(=O)NC(Cc1ccc(OCc2ccccc2)cn1)C(=O)N1CCCC1 (centres undefined)
67.4 µM: [26]
41.9 µM: [15]
96.7 µM: [52]
91.8 µM: [3]
not listed: [47] | [49] | [51]
> 100 µM: all other assays above
